Reference: US9359293B2, “Methods of treatment using modulators of SIRT2” (priority 2011, dated 2016)
“Also recorded” adds a separate entry of the source.

Legend:
Sirt5 = Sirt5 (Homo sapiens (Human), UniProt Q9NXA8); assay: Sirtuin deacylase inhibition, HPLC assay (H3K9Su peptide); format: biochemical; details: 1 μM sirtuin, 1 mM NAD, 30 min pre-incubation, 10 minutes
Experimental: (§1) Distinct selectivity profiles were found for each of the inhibitors studied. Different concentrations of TA, TB, TH, or TM were pre-incubated with 1 μM of the sirtuin and 1 mM NAD in 20 mM Tris-HCl buffer (pH 8.0) with 1 mM dithiothreitol (DTT) at 37° C. for 30 minutes. Then 0.05 mM acyl peptides (H3K9Ac for Sirt1, Sirt2 and Sirt3; H3K9Su for Sirt5; H3K9Myr for Sirt6 and Sirt7) were added to initiate the reactions. The total reaction volume iwas […]. Then reactions were incubated at 37° C. for a certain amount of time (2 minutes for Sirt1, 10 minutes for Sirt2 and Sirt5, 30 minutes for Sirt3, and 1 hour for Sirt6 and Sirt7). The reactions were stopped by adding […] of an aqueous solution containing 200 mM HCl and 320 mM acetic acid. After centrifugation to remove precipitated proteins, the supernatant was analyzed by HPLC with a reverse phase C18 column (250×4.6 mm, 90 A, […], GraceVydac, Southborough, Mass.), with a linear gradient of 0% to 20% B for 10 minutes (1 mL/min). […] All reactions were done in duplicate.

Sirt1 = Sirt1 (Homo sapiens (Human), UniProt Q96EB6); assay: Sirtuin deacylase inhibition, HPLC assay (H3K9Ac peptide); format: biochemical; details: for IC50: 1 μM sirtuin, 1 mM NAD, 30 min pre-incubation, H3K9Ac, 2 minutes; for inhibition of Sirt1 (in words): summary of Table 1
Experimental: as §1, with “Then” for “Distinct selectivity profiles were found for each of the inhibitors studied. Different concentrations of TA, TB, TH, or TM were pre-incubated with 1 μM of the sirtuin and 1 mM NAD in 20 mM Tris-HCl buffer (pH 8.0) with 1 mM dithiothreitol (DTT) at 37° C. for 30 minutes. Then”

Sirt2 = Sirt2 (Homo sapiens (Human), UniProt Q8IXJ6); assay: as above; format: biochemical; details: for IC50: 1 μM sirtuin, 1 mM NAD, 30 min pre-incubation, H3K9Ac, 10 minutes
Experimental: as §1, with “Then” for “Distinct selectivity profiles were found for each of the inhibitors studied. Different concentrations of TA, TB, TH, or TM were pre-incubated with 1 μM of the sirtuin and 1 mM NAD in 20 mM Tris-HCl buffer (pH 8.0) with 1 mM dithiothreitol (DTT) at 37° C. for 30 minutes. Then”

Sirt6 = Sirt6 (Homo sapiens (Human), UniProt Q8N6T7); assay: Sirtuin deacylase inhibition, HPLC assay (H3K9Myr peptide); format: biochemical; details: 1 μM sirtuin, 1 mM NAD, 30 min pre-incubation, 1 hour
Experimental: as §1

Sirt7 = Sirt7 (Homo sapiens (Human), UniProt Q9NRC8); assay: as above; format: biochemical; details: 1 μM sirtuin, 1 mM NAD, 30 min pre-incubation, 1 hour
Experimental: as §1

Sirt3 = Sirt3 (Homo sapiens (Human), UniProt Q9NTG7); assay: Sirtuin deacylase inhibition, HPLC assay (H3K9Ac peptide); format: biochemical; details: 1 μM sirtuin, 1 mM NAD, 30 min pre-incubation
Experimental: as §1

MCF10a normal cell line = assay: Low serum survival assay (normal cell proliferation); format: cell-based, human; details: 25 μM, FIG. 3(B), compared with MCF7
[1] = tested on: triple negative breast cancer cell line MDA-MB-231; assay: Soft agar assay (anchorage-independent growth); format: cell-based; details: 25 μM, FIGS. 4(A), 4(B)
Experimental: Next, the ability of these inhibiting compounds to inhibit cancer cell proliferation was tested. MCF-7 and MDA-MB-231 cells (ATCC) were both maintained in RPMI 1640 media (Invitrogen®) supplemented with 10% heat-inactivated fetal bovine serum (FBS). MCF-10A (ATCC) cells were maintained in Dulbecco's Modified Eagle Medium: Nutrient Mixture F-12 (DMEM/F12) (Invitrogen®) supplemented with 10% horse serum (Invitrogen®).
The 0.6% agarose type VII (Sigma), 10% FBS and 1% Penicillin-Streptomycin (Invitrogen®) were prepared in RPMI 1640 medium, and added to a six-well culture plate (2 mL/well). The plates were kept at […] for 20 minutes to allow the agarose to solidify. Plates were then incubated at 37° C. for 5 minutes before the addition of the 1 mL soft agar/cell solution prepared by mixing 0.3% agarose type VII, 10% FBS, 1% Penicillin-Streptomycin and ˜3000 cells in RPMI 1640 medium. Again, the plates were kept at 4° C. for 20 minutes to allow the agarose to solidify. After the plates were incubated at 37° C. for 7 days, 1 mL of RPMI 1640 medium with 0.3% agarose type VII, 10% FBS and 1% Penicillin-Streptomycin was added to the plates and the plates kept at 4° C. for 20 minutes to allow the agarose to solidify. After the plates were incubated at 37° C. for another 7 days, the colony formations were examined under a microscope. All the experiments were duplicated. […]

Sequence of Sirt7 (Q9NRC8 whole entry): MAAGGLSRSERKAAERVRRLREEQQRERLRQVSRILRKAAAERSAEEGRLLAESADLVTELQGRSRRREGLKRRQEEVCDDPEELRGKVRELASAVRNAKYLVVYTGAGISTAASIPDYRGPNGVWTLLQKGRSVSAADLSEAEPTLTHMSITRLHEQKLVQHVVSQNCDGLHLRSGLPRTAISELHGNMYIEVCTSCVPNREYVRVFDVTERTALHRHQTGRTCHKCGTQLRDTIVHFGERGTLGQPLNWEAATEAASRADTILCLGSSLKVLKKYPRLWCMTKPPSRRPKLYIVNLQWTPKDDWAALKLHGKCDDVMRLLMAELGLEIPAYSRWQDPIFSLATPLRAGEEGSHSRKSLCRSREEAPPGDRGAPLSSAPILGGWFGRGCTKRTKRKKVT
Sequence of Sirt6 (Q8N6T7 whole entry): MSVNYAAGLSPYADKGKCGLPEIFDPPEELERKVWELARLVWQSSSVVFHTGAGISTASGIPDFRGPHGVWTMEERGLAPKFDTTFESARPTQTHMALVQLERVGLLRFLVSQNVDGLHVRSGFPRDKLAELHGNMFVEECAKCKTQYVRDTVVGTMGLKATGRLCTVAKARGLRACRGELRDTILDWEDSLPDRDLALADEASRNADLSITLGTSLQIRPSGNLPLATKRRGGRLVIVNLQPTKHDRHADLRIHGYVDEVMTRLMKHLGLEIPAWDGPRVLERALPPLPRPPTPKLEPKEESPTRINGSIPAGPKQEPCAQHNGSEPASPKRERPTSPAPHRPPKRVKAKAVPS
Sequence of Sirt5 (Q9NXA8 37-310): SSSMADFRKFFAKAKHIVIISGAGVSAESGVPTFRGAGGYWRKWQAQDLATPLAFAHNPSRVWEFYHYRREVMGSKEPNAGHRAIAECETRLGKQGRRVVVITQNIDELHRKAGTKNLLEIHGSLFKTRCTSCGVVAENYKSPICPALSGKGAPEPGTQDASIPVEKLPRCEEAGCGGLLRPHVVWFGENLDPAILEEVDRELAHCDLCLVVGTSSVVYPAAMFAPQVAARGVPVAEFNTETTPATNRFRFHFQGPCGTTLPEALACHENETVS
Sequence of Sirt2 (Q8IXJ6 whole entry): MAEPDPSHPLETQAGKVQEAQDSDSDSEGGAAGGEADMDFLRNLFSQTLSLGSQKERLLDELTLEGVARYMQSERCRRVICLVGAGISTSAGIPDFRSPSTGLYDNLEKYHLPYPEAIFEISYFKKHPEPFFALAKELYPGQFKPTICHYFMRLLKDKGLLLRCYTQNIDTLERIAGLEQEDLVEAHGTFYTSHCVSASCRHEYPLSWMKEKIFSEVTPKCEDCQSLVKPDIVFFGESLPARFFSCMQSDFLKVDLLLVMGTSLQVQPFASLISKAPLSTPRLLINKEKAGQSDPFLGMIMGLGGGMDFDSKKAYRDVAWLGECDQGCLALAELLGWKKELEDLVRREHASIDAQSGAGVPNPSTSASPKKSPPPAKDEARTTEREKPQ
Sequence of Sirt1 (Q96EB6 whole entry): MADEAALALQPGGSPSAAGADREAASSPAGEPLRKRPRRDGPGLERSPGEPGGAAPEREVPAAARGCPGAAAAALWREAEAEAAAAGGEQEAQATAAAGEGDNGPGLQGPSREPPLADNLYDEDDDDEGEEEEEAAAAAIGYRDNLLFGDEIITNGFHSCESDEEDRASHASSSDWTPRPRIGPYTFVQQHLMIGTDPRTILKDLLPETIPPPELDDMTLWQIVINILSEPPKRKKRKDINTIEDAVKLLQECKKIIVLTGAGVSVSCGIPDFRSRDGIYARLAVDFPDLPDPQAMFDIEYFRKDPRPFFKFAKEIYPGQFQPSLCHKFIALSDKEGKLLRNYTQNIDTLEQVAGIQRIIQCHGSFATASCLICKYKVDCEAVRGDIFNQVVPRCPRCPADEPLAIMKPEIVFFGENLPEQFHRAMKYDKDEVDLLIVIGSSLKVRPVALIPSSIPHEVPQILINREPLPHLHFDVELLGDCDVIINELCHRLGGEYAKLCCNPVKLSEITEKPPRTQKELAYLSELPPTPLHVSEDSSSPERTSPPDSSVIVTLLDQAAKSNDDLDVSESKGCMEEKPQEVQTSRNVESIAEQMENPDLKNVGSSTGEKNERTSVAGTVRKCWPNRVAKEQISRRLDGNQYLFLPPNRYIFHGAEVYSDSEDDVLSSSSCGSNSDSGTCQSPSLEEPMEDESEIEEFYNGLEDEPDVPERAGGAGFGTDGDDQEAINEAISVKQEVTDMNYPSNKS
Sequence of Sirt3 (Q9NTG7 whole entry): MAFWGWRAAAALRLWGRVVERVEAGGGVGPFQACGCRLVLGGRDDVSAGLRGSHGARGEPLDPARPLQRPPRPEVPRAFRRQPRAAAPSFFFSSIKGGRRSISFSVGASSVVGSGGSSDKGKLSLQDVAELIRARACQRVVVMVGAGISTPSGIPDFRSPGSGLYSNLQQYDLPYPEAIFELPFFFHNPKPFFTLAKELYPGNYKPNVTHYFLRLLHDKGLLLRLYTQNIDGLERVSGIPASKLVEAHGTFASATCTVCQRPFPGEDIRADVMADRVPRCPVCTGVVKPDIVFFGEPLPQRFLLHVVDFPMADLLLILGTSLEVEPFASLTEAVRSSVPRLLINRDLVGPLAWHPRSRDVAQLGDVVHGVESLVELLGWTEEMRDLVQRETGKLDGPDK

SMILES | IC50 (Sirt5) [µM] | IC50 (Sirt1) [µM] | IC50 (Sirt2) [µM] | IC50 (Sirt6) [µM] | IC50 (Sirt7) [µM] | IC50 (Sirt3) [µM] | inhibition of Sirt1 (in words) (Sirt1) | effect on growth of MCF10a normal non-tumorigenic cells (MCF10a normal cell line) | inhibition of Sirt2 (in words) (Sirt2; summary of Table 1) | inhibition of anchorage-independent growth of MDA-MB-231 [1]
CC(=S)NCCCCC(NC(=O)OCc1ccccc1)C(=O)Nc1ccccc1 (stereo not shown) [TA] | > 205 | 30 | 105 | > 205 | > 205 | > 205 | – | – | – | –
CCCC(=S)NCCCCC(NC(=O)OCc1ccccc1)C(=O)Nc1ccccc1 (stereo not shown) [TB] | > 205 | 2.4 | 3 | > 205 | > 205 | – | efficiently inhibit | – | – | –
CCCCCCC(=S)NCCCCC(NC(=O)OCc1ccccc1)C(=O)Nc1ccccc1 (stereo not shown) [TH] | > 205 | 0.31 | 0.12 | > 205 | > 205 | – | efficiently inhibit | much less than that in the MCF7 cancer cell line; also recorded: can still grow | efficiently inhibit | –
CCCCCCCCCCCCCC(=S)NCCCCC(NC(=O)OCc1ccccc1)C(=O)Nc1ccccc1 (stereo not shown) [TM] | > 205 | – | – | > 205 | > 205 | – | – | much less than that in the MCF7 cancer cell line; also recorded: can still grow | – | can inhibit the anchorage-independent growth
